These results are taken from patent US8735425B2, “Tetrahydroisoquinoline derivative” (Daiichi Sankyo Company, Limited, priority 2008, dated 2014).

The target of assay [1] is T1, DGAT1 enzyme (Homo sapiens, UniProt O75907).
T1 construct: made in house
T1 sequence (O75907 1-488): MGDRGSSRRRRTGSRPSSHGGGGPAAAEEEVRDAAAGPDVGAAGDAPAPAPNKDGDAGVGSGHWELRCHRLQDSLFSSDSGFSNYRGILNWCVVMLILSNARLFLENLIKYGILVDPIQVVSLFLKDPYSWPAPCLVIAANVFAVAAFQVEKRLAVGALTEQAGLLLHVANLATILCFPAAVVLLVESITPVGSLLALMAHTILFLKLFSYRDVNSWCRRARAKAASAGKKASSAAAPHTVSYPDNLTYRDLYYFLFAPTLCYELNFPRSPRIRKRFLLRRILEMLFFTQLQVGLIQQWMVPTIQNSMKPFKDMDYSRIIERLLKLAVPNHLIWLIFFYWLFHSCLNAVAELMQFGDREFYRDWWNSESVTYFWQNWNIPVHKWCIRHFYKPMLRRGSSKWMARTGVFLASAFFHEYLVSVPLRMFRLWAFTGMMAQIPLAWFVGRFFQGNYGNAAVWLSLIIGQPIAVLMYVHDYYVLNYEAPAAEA
The experiment in a line: DGAT1 inhibitory activity test. To be noted: test compound concentration of 0.05 μg/ml; read-out: Inhibitory Rate. Type of assay: biochemical. As for the experimental part:
DGAT1 enzyme was prepared and stored according to the method described in US2007/0249620.
(2) DGAT1 Inhibitory Activity Test
A reaction solution having the following composition was incubated at room temperature (23° C.) for 30 minutes: 175 mM Tris-HCl (pH 8.0), 8 mM MgCl2, 1 mg/ml BSA, 0.3 mM 1,2-dioleoyl-sn-glycerol (10-fold concentration of EtOH solution, 10% added), 10 μM [^14C]-oleoyl-CoA (approximately 50 mCi/mmol), 0.5% Triton X-100, the DGAT1 enzyme (10 μg) obtained in Test Example 1(1), and a test compound or vehicle (DMSO/MeOH, 7:3 solution, 5% added), […] in total. A reaction stop solution ([…] consisting of isopropanol/1-heptane/water (80:20:2, v/v/v) was added to the reaction solution and stirred. Subsequently, water (30 μl) and 1-heptane (100 μl) were added thereto and stirred. The 1-heptane layer (50 μl) was spotted onto a TLC plate and developed with a developing solvent consisting of 1-hexane/diethyl ether/acetic acid (85:15:1, v/v/v). The radioactivity of the triglyceride fraction was quantified using BAS2000 Bio Image Analyzer (FUJIFILM) and compared with the control. The inhibitory activity of the test compound was calculated according to the formula shown below. In this context, the radioactivity at no reaction (0 minute incubation) was used as background. Inhibitory Rate=100−[(Radioactivity of sample supplemented with test compound)−(Background)]/[(Radioactivity of control)−(Background)]×100

The subject of assay [2] is Male C57BL/6N mice. The experiment in a line: Triglyceride absorption suppression after fat loading (in vivo DGAT1 inhibitory effect). The note with it: Mus musculus, po; dose of 10 mg/kg or lower, orally administered, mice fasted overnight, plasma triglyceride after fat loading; read-out: Triglyceride absorption suppressive activity. As for the experimental part:
The DGAT1 enzyme is important for the digestion and absorption of triglycerides, and the inhibition of DGAT1 in the small intestine suppresses the absorption of triglycerides. The in vivo activity of its DGAT1 inhibitory effect was evaluated with the suppressed absorption of triglycerides after fat loading as an index. Male C57BL/6N mice (7-12 weeks old, body weight: 17-25 g, Charles River Laboratories Japan Inc.) fasted overnight were assigned to Vehicle group 1, Vehicle group 2, and each test compound group, to which a vehicle (0.5% methylcellulose) or each test compound (1 to 10 mg/kg) suspended in vehicle was orally administered (5 mL/kg). After a given time, a lipoprotein lipase inhibitor (Pluronic-F127: Sigma-Aldrich Corp., 1 g/kg, 20% by weight dissolved in saline) was intraperitoneally administered (5 mL/kg) to each group. Immediately thereafter, distilled water for the Vehicle group 1 or a 20% fat-containing emulation (Intralipid 20%: TERUMO CORP., Japan) for the Vehicle group 2 and the compound groups were orally administered thereto (0.2 mL/mouse). After a given time of 1 to 4 hours after administration, blood was collected from the tail vein or the right ventricle, and plasma was immediately separated and collected. Then, the triglyceride concentration in plasma was measured using a commercially available kit (Triglyceride E-Test Wako: Wako Pure Chemical Industries, Ltd.). In this method, the administration of the lipoprotein lipase inhibitor suppresses the hydrolysis of triglycerides in the blood such that the triglycerides are accumulated in the blood. These triglycerides are derived from two origins: exogenous triglycerides absorbed in the gastrointestinal tract and endogenous triglycerides released from the liver. The triglyceride absorption suppressive activity of each test compound was calculated based on the equation shown below by removing the influence of the endogenous triglycerides. In this context, each test compound was separately confirmed to have no influence on the concentration of the endogenous triglycerides.
Triglyceride absorption suppressive activity (%)=100−[(Triglyceride concentration of each test compound group)−(Triglyceride concentration of Vehicle group 1)]/[(Triglyceride concentration of Vehicle group 2)−(Triglyceride concentration of Vehicle group 1)]×100

As for `COc1ccccc1NC(=O)Nc1ccc2c(c1)CCN(C(=O)O[C@H]1CC[C@H](CC(=O)O)CC1)C2` [Example 21, trans-6-[3-(2-methoxy-phenyl)-ureido]-3,4-dihydro-1H-isoquinoline-2-carboxylic acid 4-carboxymethyl-cyclohexyl ester], the inhibition at 0.05 µg/mL in assay [1] was not below 50%. For the same compound, the inhibition in vivo at up to 10 mg/kg in assay [2] is not below 60%.
Consider `COc1ccc(F)cc1NC(=O)Nc1ccc2c(c1)CCN(C(=O)O[C@H]1CC[C@H](CC(=O)O)CC1)C2` [Example 22, trans-6-[3-(5-fluoro-2-methoxy-phenyl)-ureido]-3,4-dihydro-1H-isoquinoline-2-carboxylic acid 4-carboxymethyl-cyclohexyl ester], for which the inhibition at 0.05 µg/mL in assay [1] was not below 50%. Also, the inhibition in vivo at up to 10 mg/kg in assay [2] is not below 60%.
On to `COc1ccc(C)cc1NC(=O)Nc1ccc2c(c1)CCN(C(=O)O[C@H]1CC[C@H](CC(=O)O)CC1)C2` [Example 23, trans-6-[3-(2-methoxy-5-methyl-phenyl)-ureido]-3,4-dihydro-1H-isoquinoline-2-carboxylic acid 4-carboxymethyl-cyclohexyl ester], for which, in assay [1], the inhibition at 0.05 µg/mL is not below 50%. Moreover, the inhibition in vivo at up to 10 mg/kg in assay [2] is not below 60%.
For `COc1ncccc1NC(=O)Nc1ccc2c(c1)CCN(C(=O)O[C@H]1CC[C@H](CC(=O)O)CC1)C2` [Example 24, trans-6-[3-(2-methoxy-pyridin-3-yl)-ureido]-3,4-dihydro-1H-isoquinoline-2-carboxylic acid 4-carboxymethyl-cyclohexyl ester], in that order: not below 50% and not below 60%.
Turning to `O=C(O)C[C@H]1CC[C@H](OC(=O)N2CCc3cc(Nc4nc5ccccc5o4)ccc3C2)CC1` [Example 25, trans-6-(benzoxazol-2-ylamino)-3,4-dihydro-1H-isoquinoline-2-carboxylic acid 4-carboxymethyl-cyclohexyl ester], in assay [1], the inhibition at 0.05 µg/mL was not below 50%. For the same compound, in assay [2], the inhibition in vivo at up to 10 mg/kg is not below 60%.
Regarding `CCOc1ccccc1NC(=O)Nc1ccc2c(c1)CCN(C(=O)O[C@H]1CC[C@H](CC(=O)O)CC1)C2` [Example 26, trans-6-[3-(2-ethoxy-phenyl)-ureido]-3,4-dihydro-1H-isoquinoline-2-carboxylic acid 4-carboxymethyl-cyclohexyl ester], the inhibition at 0.05 µg/mL in assay [1] is not below 50%. For the same compound, the inhibition in vivo at up to 10 mg/kg in assay [2] was not below 60%.
On to `CCOc1ccc(F)cc1NC(=O)Nc1ccc2c(c1)CCN(C(=O)O[C@H]1CC[C@H](CC(=O)O)CC1)C2` [Example 27, trans-6-[3-(2-ethoxy-5-fluoro-phenyl)-ureido]-3,4-dihydro-1H-isoquinoline-2-carboxylic acid 4-carboxymethyl-cyclohexyl ester], for which the inhibition at 0.05 µg/mL in assay [1] is not below 50%. In assay [2], the inhibition in vivo at up to 10 mg/kg was not below 60%.
For `CC(C)c1ccccc1NC(=O)Nc1ccc2c(c1)CCN(C(=O)O[C@H]1CC[C@H](CC(=O)O)CC1)C2` [Example 28, trans-6-[3-(2-isopropyl-phenyl)-ureido]-3,4-dihydro-1H-isoquinoline-2-carboxylic acid 4-carboxymethyl-cyclohexyl ester], in that order: not below 50% and not below 60%.
For `CC(C)c1cccc(NC(=O)Nc2ccc3c(c2)CCN(C(=O)O[C@H]2CC[C@H](CC(=O)O)CC2)C3)c1` [Example 29, trans-6-[3-(3-isopropyl-phenyl)-ureido]-3,4-dihydro-1H-isoquinoline-2-carboxylic acid 4-carboxymethyl-cyclohexyl ester], in that order: not below 50% and not below 60%.
In the case of `CC(C)Oc1cccc(NC(=O)Nc2ccc3c(c2)CCN(C(=O)O[C@H]2CC[C@H](CC(=O)O)CC2)C3)c1` [Example 30, trans-6-[3-(3-isopropoxy-phenyl)-ureido]-3,4-dihydro-1H-isoquinoline-2-carboxylic acid 4-carboxymethyl-cyclohexyl ester], in assay [1], the inhibition at 0.05 µg/mL was not below 50%. Further, the inhibition in vivo at up to 10 mg/kg in assay [2] was not below 60%.
For `O=C(O)C[C@H]1CC[C@H](OC(=O)N2CCc3cc(NC(=O)Nc4cc(F)c(F)cc4F)ccc3C2)CC1` [Example 31, trans-6-[3-(2,4,5-trifluoro-phenyl)-ureido]-3,4-dihydro-1H-isoquinoline-2-carboxylic acid 4-carboxymethyl-cyclohexyl ester], in assay [1], the inhibition at 0.05 µg/mL was not below 50%. Also, in assay [2], the inhibition in vivo at up to 10 mg/kg is not below 60%.
In the case of `O=C(O)C[C@H]1CC[C@H](OC(=O)N2CCc3cc(NC(=O)Nc4cc(F)c(F)c(F)c4)ccc3C2)CC1` [Example 32, trans-6-[3-(3,4,5-trifluoro-phenyl)-ureido]-3,4-dihydro-1H-isoquinoline-2-carboxylic acid 4-carboxymethyl-cyclohexyl ester], in assay [1], the inhibition at 0.05 µg/mL is not below 50%. Besides, the inhibition in vivo at up to 10 mg/kg in assay [2] is not below 60%.
On to `O=C(Nc1ccc2c(c1)CCN(C(=O)O[C@H]1CC[C@H](Cc3noc(=O)[nH]3)CC1)C2)Nc1ccccc1F` [Example 41, trans-6-[3-(2-fluoro-phenyl)-ureido]-3,4-dihydro-1H-isoquinoline-2-carboxylic acid 4-(5-oxo-4,5-dihydro-[1,2,4]oxadiazol-3-ylmethyl)-cyclohexyl ester], for which, in assay [1], the inhibition at 0.05 µg/mL was not below 50%. Moreover, the inhibition in vivo at up to 10 mg/kg in assay [2] is not below 60%.
As to `O=C(Nc1ccc2c(c1)CCN(C(=O)O[C@H]1CC[C@H](Cc3cc(O)no3)CC1)C2)Nc1ccccc1F` [Example 43, trans-6-[3-(2-fluoro-phenyl)-ureido]-3,4-dihydro-1H-isoquinoline-2-carboxylic acid 4-(3-hydroxy-isoxazol-5-ylmethyl)-cyclohexyl ester], the inhibition at 0.05 µg/mL in assay [1] was not below 50%. For the same compound, the inhibition in vivo at up to 10 mg/kg in assay [2] was not below 60%.
In the case of `O=C(Nc1ccc2c(c1)CCN(C(=O)O[C@H]1CC[C@H](Cc3nn[nH]n3)CC1)C2)Nc1ccccc1F` [Example 44, trans-6-[3-(2-fluoro-phenyl)-ureido]-3,4-dihydro-1H-isoquinoline-2-carboxylic acid 4-(2H-tetrazol-5-ylmethyl)-cyclohexyl ester], in assay [1], the inhibition at 0.05 µg/mL is not below 50%. The inhibition in vivo at up to 10 mg/kg in assay [2] is not below 60%.
On to `O=C(Nc1ccc2c(c1)CCN(C(=O)O[C@H]1CC[C@H](CC(=O)OC[C@@H](O)CO)CC1)C2)Nc1ccccc1F` [Example 45, trans-6-[3-(2-fluoro-phenyl)-ureido]-3,4-dihydro-1H-isoquinoline-2-carboxylic acid 4-((S)-2,3-dihydroxy-propoxycarbonylmethyl)-cyclohexyl ester], for which the inhibition at 0.05 µg/mL in assay [1] is not below 50%. The inhibition in vivo at up to 10 mg/kg in assay [2] was not below 60%.
As for `O=C(O)C[C@H]1CC[C@H](OC(=O)N2CCc3cc(Nc4nc5ccc(Cl)cc5o4)ccc3C2)CC1` [Example 47, trans-6-(6-chloro-benzoxazol-2-ylamino)-3,4-dihydro-1H-isoquinoline-2-carboxylic acid 4-carboxymethyl-cyclohexyl ester], the inhibition at 0.05 µg/mL in assay [1] is not below 50%. Further, the inhibition in vivo at up to 10 mg/kg in assay [2] is not below 60%.
